By LC50 is commonly meant the concentration lethal to half of the exposed cells or organisms.

The assay has as its system mosquito larvae. Kind of assay: Mosquito larval mortality bioassay in microtiter plates. Particulars: 72 h; larval mortality followed for three days; 160 μL sterile water, 1-4 μL test compound in dimethylsulfoxide, 10 μL 2% Brewer's yeast. It is filed as in vivo. As for the experimental part: The term “LC50” also is used hereinafter and refers to the concentration of a pest-controlling compound of the invention in the ambient environment of the pest species that is able to cause a 50% mortality of such species. For example, in tests described hereinafter, wherein compounds of the invention are tested for pesticidal efficacy against mosquito larvae, the compounds are present in a state of dynamic equilibrium in the aqueous environment containing the yeast and are taken up by the filter-feeding mosquito larvae during their feeding on the yeast.
Mosquito larval mortality was followed for three days in microtiter plates containing 160 μL sterile water, 1-4 μL of the test compound dissolved in dimethylsulfoxide, and 10 μL of 2% Brewer's yeast.
Mosquito larval mortality was followed for three days in microtiter plates containing 160 μL sterile water, 1-4 μL of the test compound dissolved in dimethylsulfoxide, and 10 μL of 2% Brewer's yeast. Controls were run under the same conditions without the test compounds. Larval mortality in the controls was 3% for 1-3 μL dimethylsulfoxide, and up to 20% for 4 μL dimethylsulfoxide.

`O=C(O)CCC1CC1CCc1ccccc1` (stereo not drawn) [IBI-215, 7-Phenyl-trans-(4,5-methano)heptanoic acid] gave an LC50 of 180 ± 30 µM.
The same measure for `O=C(O)CCC1CC1CCC1CCCCC1` (stereo not drawn) [IBI-216, 7-Cyclohexyl-trans-(4,5-methano)heptanoic acid]: 300 ± 10 µM; for `O=C(O)CCC1CC1CCc1ccc(-c2ccccc2)cc1` (stereo not drawn) [IBI-217, 7-(4-Phenyl)phenyl-trans-(4,5-methano)heptanoic acid]: 130 ± 40 µM.
